Test results: patent US20090005424A9, “Composition and Method for Treating Fibrotic Diseases” (priority 2005, published 2009)
Marks after values point to notes of the source that are not given here.

What was measured:
[1] = tested on: Rat Myocardiac Fibroblasts; assay: MTT proliferation assay, rat myocardiac fibroblasts; format: cell-based
Experimental: (§1) In the following examples, myocardiac fibroblasts, skin scar forming fibroblast and human peritoneal mesothelial cells are primary cultures prepared according to common procedure. Other cells are commercially purchased. 1-(3-fluorophenyl)-5-methyl-2(1H)-pyridone (AKF-PD) is prepared as a suspension in 5% carboxymethylcellulose.
(§2) Cell proliferation was measured by MTT assay. DMEM with 10% fetal serum was used as cell culture medium. The cells were prepared in suspension (1×10^5/ml), and 100 μL of the suspension was transferred to each well of a 96 wells plate. Once the cells were attached to the plastic, the culture was changed to serum free medium and incubated for another 24 hours. Then, the serum free medium was aspirated, and various concentrations of 1-(3′-fluorophenyl)-5-methyl-2(1H)-pyridone (AKF-PD) or PIRFENIDONE (PFD) in 10% serum medium were added into each well with 5 replicates for each concentration. The cells were stained with MTT (10 μL per well) at 12, 24, or 48 hours post drug treatment. After 4 hrs of incubation, the medium with MTT was aspirated from each well. One hundred μL MTT solvent was added to each well for 15 min, and the dissolved MTT was measured with a plate reader at 570 nm.

Human Stellate Cells = assay: MTT proliferation assay, human stellate cells; format: cell-based
Experimental: as §2, with “MTT was then measured with” for “MTT was measured with”

[2] = tested on: Rat Pulmonary Fibroblasts; assay: MTT proliferation assay, rat pulmonary fibroblasts; format: cell-based; conditions: for order of inhibitory effect: rat pulmonary fibroblasts
Experimental: as §2, with “(AKF-PD) or 1-(3′-bromophenyl)-5-Methyl-2(1H)-Pyridone or PIRFENIDONE (PFD)” for “(AKF-PD) or PIRFENIDONE (PFD)”, “well) at 24, or” for “well) at 12, 24, or”

[3] = tested on: Human Peritoneal Mesothelial Cells; assay: MTT proliferation assay, human peritoneal mesothelial cells; format: cell-based
Experimental: as §1
as §2, with “[…],” for “24,”

[4] = Acute oral toxicity in Kun Ming mice, LD50 by Bliss method; conditions: both sexes, Kun Ming (KM), mouse, in vivo, po
Experimental: Male and female Kun Ming (KM) mice weighing between 18 g-22 g were acquired from the animal facility of Hsiang-Ya Medical College, the Central South University. Fifty Kun Ming mice were randomly assigned into 5 groups with 5 male and 5 female mice for each group. The animals went through fasting with a normal water supply before starting drug treatment (either AKF-PD or PIRFENIDONE). The drug was administrated orally by gavage. The volume of liquid drug was 20 ml/kg body weight. The range of dosage for AKF-PD administrated was from 1071 mg/kg to 6000 mg/kg. The dosage difference between two adjacent doses was 1:0.65 (a dose vs the next lower dose). All animals were maintained under a regular condition. Acute toxic reaction and death within 14 days of post drug treatment were recorded. Autopsy was performed on all dead animals and visual examination was performed on all organs.
LD50 was calculated according to Bliss method. […] The results of Table 15 are very close to those reported in the literature: 997.7 mg/kg (U.S. Pat. No. 5,310,562) and 1112 mg/kg(Pharmaceutical Care and Research 5:4823(2005)).

Cc1ccc(=O)n(-c2ccccc2)c1 [PFD, 5-methyl-1-phenyl-2(1H)-pyridone, reference compound]
Optical Density at 570 nm ([1]; 100 μg/ml, 12 h): 0.330 ± 0.014
Optical Density at 570 nm ([1]; 100 μg/ml, 24 h): 0.429 ± 0.009
Optical Density at 570 nm ([1]; 100 μg/ml, 48 h): 0.654 ± 0.007*^+
Optical Density at 570 nm ([1]; 500 μg/ml, 12 h): 0.329 ± 0.013
Optical Density at 570 nm ([1]; 500 μg/ml, 24 h): 0.411 ± 0.006
Optical Density at 570 nm ([1]; 500 μg/ml, 48 h): 0.612 ± 0.014***^++
Optical Density at 570 nm ([1]; 1000 μg/ml, 12 h): 0.331 ± 0.009
Optical Density at 570 nm ([1]; 1000 μg/ml, 24 h): 0.403 ± 0.010**^+
Optical Density at 570 nm ([1]; 1000 μg/ml, 48 h): 0.597 ± 0.013***^+++
Optical Density at 570 nm ([1]; 2500 μg/ml, 12 h): 0.329 ± 0.008
Optical Density at 570 nm ([1]; 2500 μg/ml, 24 h): 0.392 ± 0.009**^+
Optical Density at 570 nm ([1]; 2500 μg/ml, 48 h): 0.566 ± 0.027
Optical Density at 570 nm (Human Stellate Cells; 100 μg/ml, 12 h): 0.206 ± 0.003
Optical Density at 570 nm (Human Stellate Cells; 100 μg/ml, 24 h): 0.371 ± 0.001
Optical Density at 570 nm (Human Stellate Cells; 100 μg/ml, 48 h): 0.447 ± 0.003
Optical Density at 570 nm (Human Stellate Cells; 500 μg/ml, 12 h): 0.202 ± 0.001
Optical Density at 570 nm (Human Stellate Cells; 500 μg/ml, 24 h): 0.345 ± 0.002
Optical Density at 570 nm (Human Stellate Cells; 500 μg/ml, 48 h): 0.413 ± 0.001***^++
Optical Density at 570 nm (Human Stellate Cells; 1000 μg/ml, 12 h): 0.201 ± 0.001
Optical Density at 570 nm (Human Stellate Cells; 1000 μg/ml, 24 h): 0.330 ± 0.001***^++
Optical Density at 570 nm (Human Stellate Cells; 1000 μg/ml, 48 h): 0.402 ± 0.001***^++
Optical Density at 570 nm (Human Stellate Cells; 2500 μg/ml, 12 h): 0.198 ± 0.001
Optical Density at 570 nm (Human Stellate Cells; 2500 μg/ml, 24 h): 0.278 ± 0.001***^+
Optical Density at 570 nm (Human Stellate Cells; 2500 μg/ml, 48 h): 0.306 ± 0.002***^+++
Optical Density at 570 nm ([2]; 100 μg/ml, 24 h): 0.2023 ± 0.0169
Optical Density at 570 nm ([2]; 100 μg/ml, 48 h): 0.1864 ± 0.0530
Optical Density at 570 nm ([2]; 500 μg/ml, 24 h): 0.1887 ± 0.0130
Optical Density at 570 nm ([2]; 500 μg/ml, 48 h): 0.1459 ± 0.0255
Optical Density at 570 nm ([2]; 1000 μg/ml, 24 h): 0.1797 ± 0.0166
Optical Density at 570 nm ([2]; 1000 μg/ml, 48 h): 0.1269 ± 0.0302
order of inhibitory effect [2]: AKF-PD>AKF-BR>pirfenidone
Optical Density at 570 nm ([3]; 100 μg/ml, 12 h): 0.346 ± 0.006
Optical Density at 570 nm ([3]; 100 μg/ml, 24 h): 0.584 ± 0.005
Optical Density at 570 nm ([3]; 100 μg/ml, 48 h): 0.810 ± 0.006
Optical Density at 570 nm ([3]; 500 μg/ml, 12 h): 0.343 ± 0.004
Optical Density at 570 nm ([3]; 500 μg/ml, 24 h): 0.577 ± 0.003
Optical Density at 570 nm ([3]; 500 μg/ml, 48 h): 0.766 ± 0.004
LD50 at 14 days ([4]; LD50): 955 mg/kg
LD50 at 14 days ([4]; LD50 95% confidence limit): 551 to 1660 mg/kg

Cc1ccc(=O)n(-c2cccc(F)c2)c1 [AKF-PD, 1-(3′-fluorophenyl)-5-methyl-2(1H)-pyridone]
Optical Density at 570 nm ([1]; 100 μg/ml, 12 h): 0.328 ± 0.010
Optical Density at 570 nm ([1]; 100 μg/ml, 24 h): 0.426 ± 0.006
Optical Density at 570 nm ([1]; 100 μg/ml, 48 h): 0.620 ± 0.018
Optical Density at 570 nm ([1]; 500 μg/ml, 12 h): 0.326 ± 0.003
Optical Density at 570 nm ([1]; 500 μg/ml, 24 h): 0.408 ± 0.009
Optical Density at 570 nm ([1]; 500 μg/ml, 48 h): 0.580 ± 0.014
Optical Density at 570 nm ([1]; 1000 μg/ml, 12 h): 0.332 ± 0.006
Optical Density at 570 nm ([1]; 1000 μg/ml, 24 h): 0.392 ± 0.008
Optical Density at 570 nm ([1]; 1000 μg/ml, 48 h): 0.538 ± 0.009
Optical Density at 570 nm ([1]; 2500 μg/ml, 12 h): 0.325 ± 0.008
Optical Density at 570 nm ([1]; 2500 μg/ml, 24 h): 0.377 ± 0.013
Optical Density at 570 nm ([1]; 2500 μg/ml, 48 h): 0.514 ± 0.005
anti-proliferative potency compared with PIRFENIDONE ([1]; rat myocardiac fibroblasts): more potent anti-proliferative agent than PIRFENIDONE
Optical Density at 570 nm (Human Stellate Cells; 100 μg/ml, 12 h): 0.202 ± 0.001
Optical Density at 570 nm (Human Stellate Cells; 100 μg/ml, 24 h): 0.366 ± 0.002
Optical Density at 570 nm (Human Stellate Cells; 100 μg/ml, 48 h): 0.442 ± 0.006
Optical Density at 570 nm (Human Stellate Cells; 500 μg/ml, 12 h): 0.202 ± 0.001
Optical Density at 570 nm (Human Stellate Cells; 500 μg/ml, 24 h): 0.341 ± 0.003
Optical Density at 570 nm (Human Stellate Cells; 500 μg/ml, 48 h): 0.406 ± 0.002
Optical Density at 570 nm (Human Stellate Cells; 1000 μg/ml, 12 h): 0.198 ± 0.001
Optical Density at 570 nm (Human Stellate Cells; 1000 μg/ml, 24 h): 0.312 ± 0.003
Optical Density at 570 nm (Human Stellate Cells; 1000 μg/ml, 48 h): 0.385 ± 0.004
Optical Density at 570 nm (Human Stellate Cells; 2500 μg/ml, 12 h): 0.195 ± 0.002
Optical Density at 570 nm (Human Stellate Cells; 2500 μg/ml, 24 h): 0.273 ± 0.005
Optical Density at 570 nm (Human Stellate Cells; 2500 μg/ml, 48 h): 0.246 ± 0.001
anti-proliferative potency compared with PIRFENIDONE (Human Stellate Cells; human stellate cells): more potent anti-proliferative agent than PIRFENIDONE
suppression of proliferation of rat pulmonary fibroblasts [2]: could suppress proliferation of rat pulmonary fibroblasts
Optical Density at 570 nm ([2]; 100 μg/ml, 24 h): 0.1467 ± 0.0138
Optical Density at 570 nm ([2]; 100 μg/ml, 48 h): 0.1369 ± 0.0115
Optical Density at 570 nm ([2]; 500 μg/ml, 24 h): 0.1258 ± 0.0119
Optical Density at 570 nm ([2]; 500 μg/ml, 48 h): 0.1214 ± 0.0234
Optical Density at 570 nm ([2]; 1000 μg/ml, 24 h): 0.1130 ± 0.0163
Optical Density at 570 nm ([2]; 1000 μg/ml, 48 h): 0.1119 ± 0.0285
order of inhibitory effect [2]: AKF-PD>AKF-BR>pirfenidone
Optical Density at 570 nm ([3]; 100 μg/ml, 12 h): 0.344 ± 0.004
Optical Density at 570 nm ([3]; 100 μg/ml, 24 h): 0.583 ± 0.004
Optical Density at 570 nm ([3]; 100 μg/ml, 48 h): 0.807 ± 0.007
Optical Density at 570 nm ([3]; 500 μg/ml, 12 h): 0.344 ± 0.005
Optical Density at 570 nm ([3]; 500 μg/ml, 24 h): 0.573 ± 0.004
Optical Density at 570 nm ([3]; 500 μg/ml, 48 h): 0.758 ± 0.010
Optical Density at 570 nm ([3]; 1000 μg/ml, 12 h): 0.343 ± 0.004
Optical Density at 570 nm ([3]; 1000 μg/ml, 24 h): 0.553 ± 0.004
Optical Density at 570 nm ([3]; 1000 μg/ml, 48 h): 0.704 ± 0.003
Optical Density at 570 nm ([3]; 2500 μg/ml, 12 h): 0.346 ± 0.005
Optical Density at 570 nm ([3]; 2500 μg/ml, 24 h): 0.502 ± 0.003
Optical Density at 570 nm ([3]; 2500 μg/ml, 48 h): 0.646 ± 0.006
anti-proliferative potency compared with PIRFENIDONE ([3]; human peritoneal mesothelial cells): more potent anti-proliferative agent than PIRFENIDONE
LD50 at 14 days ([4]; LD50): 2980 mg/kg
LD50 at 14 days ([4]; LD50 95% confidence limit): 2400 to 3700 mg/kg
